{
  "source": "patent US7541364B2",
  "about": "“Pyridomorphinans, pyridazinomorphinans and use thereof” (priority 2003, dated 2009)",
  "key": {"opioid δ receptor [1]": {"molecular_target": "T1, opioid δ receptor (Rattus norvegicus, UniProt P33533)", "T1 construct": "Rat membranes are prepared each day using a partially thawed frozen rat brain; from tissue; host or cells: rat brain membranes", "T1 sequence (P33533 whole entry)": "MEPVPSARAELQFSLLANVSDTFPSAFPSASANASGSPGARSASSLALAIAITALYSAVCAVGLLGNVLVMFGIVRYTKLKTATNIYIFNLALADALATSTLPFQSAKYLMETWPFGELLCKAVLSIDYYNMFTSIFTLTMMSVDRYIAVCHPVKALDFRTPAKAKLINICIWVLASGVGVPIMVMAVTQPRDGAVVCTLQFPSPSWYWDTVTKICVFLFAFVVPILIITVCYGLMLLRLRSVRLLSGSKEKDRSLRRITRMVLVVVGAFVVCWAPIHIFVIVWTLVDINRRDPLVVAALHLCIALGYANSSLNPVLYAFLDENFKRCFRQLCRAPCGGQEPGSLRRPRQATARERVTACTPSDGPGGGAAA", "conditions": "read-out: Ki (nM) ± SEM δ; [3H]DADLE, rat brain membranes; data from Ananthan et al. (I); cited from earlier work"}, "[2]": {"molecular_target": "T2, δ receptor (mouse vas deferens) (Mus musculus, UniProt P32300)", "T2 sequence (P32300 whole entry)": "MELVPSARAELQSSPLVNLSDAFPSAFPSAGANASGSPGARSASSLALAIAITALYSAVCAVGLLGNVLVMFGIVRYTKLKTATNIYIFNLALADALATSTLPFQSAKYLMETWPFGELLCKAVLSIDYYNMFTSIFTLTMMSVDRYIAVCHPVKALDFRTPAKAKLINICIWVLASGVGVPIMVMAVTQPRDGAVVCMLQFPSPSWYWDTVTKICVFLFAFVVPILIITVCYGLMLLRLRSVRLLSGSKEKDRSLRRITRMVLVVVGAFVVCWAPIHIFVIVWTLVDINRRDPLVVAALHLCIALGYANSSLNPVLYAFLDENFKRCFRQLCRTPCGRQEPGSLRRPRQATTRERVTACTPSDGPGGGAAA", "conditions": "percentage inhibition of contraction at 1 μM; data from Ananthan et al. (I); cited from earlier work"}, "[3]": {"molecular_target": "μ receptor (guinea pig ileum) (Cavia porcellus, UniProt A0ACM8Q262)", "sequence (A0ACM8Q262 1-400)": "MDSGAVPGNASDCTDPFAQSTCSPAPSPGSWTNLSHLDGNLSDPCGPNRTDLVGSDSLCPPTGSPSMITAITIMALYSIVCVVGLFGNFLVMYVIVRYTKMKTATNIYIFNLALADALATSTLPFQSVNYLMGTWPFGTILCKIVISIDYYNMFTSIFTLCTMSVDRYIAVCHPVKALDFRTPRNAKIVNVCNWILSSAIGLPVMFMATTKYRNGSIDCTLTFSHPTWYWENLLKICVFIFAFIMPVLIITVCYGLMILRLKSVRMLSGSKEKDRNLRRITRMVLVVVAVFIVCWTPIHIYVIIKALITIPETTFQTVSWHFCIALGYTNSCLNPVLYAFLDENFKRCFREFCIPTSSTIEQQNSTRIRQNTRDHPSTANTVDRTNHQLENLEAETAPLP", "conditions": "data from Ananthan et al. (I), cited from earlier work"}, "opioid μ receptor [4]": {"molecular_target": "T3, opioid μ receptor (Rattus norvegicus, UniProt P33535)", "T3 sequence (P33535 whole entry)": "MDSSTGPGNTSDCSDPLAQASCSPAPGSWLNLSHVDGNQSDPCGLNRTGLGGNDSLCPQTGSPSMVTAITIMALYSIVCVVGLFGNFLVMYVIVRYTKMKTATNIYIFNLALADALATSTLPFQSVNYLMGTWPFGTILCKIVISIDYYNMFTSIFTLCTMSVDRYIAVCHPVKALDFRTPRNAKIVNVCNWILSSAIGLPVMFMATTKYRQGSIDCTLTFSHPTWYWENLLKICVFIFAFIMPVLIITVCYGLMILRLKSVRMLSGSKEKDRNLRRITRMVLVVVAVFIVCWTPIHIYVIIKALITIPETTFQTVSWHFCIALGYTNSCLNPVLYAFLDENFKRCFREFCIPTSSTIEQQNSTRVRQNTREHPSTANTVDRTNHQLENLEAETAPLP", "conditions": "data from Ananthan et al. (I), cited from earlier work"}, "opioid κ receptor [5]": {"molecular_target": "T4, opioid κ receptor (Cavia porcellus, UniProt P41144)", "T4 sequence (P41144 whole entry)": "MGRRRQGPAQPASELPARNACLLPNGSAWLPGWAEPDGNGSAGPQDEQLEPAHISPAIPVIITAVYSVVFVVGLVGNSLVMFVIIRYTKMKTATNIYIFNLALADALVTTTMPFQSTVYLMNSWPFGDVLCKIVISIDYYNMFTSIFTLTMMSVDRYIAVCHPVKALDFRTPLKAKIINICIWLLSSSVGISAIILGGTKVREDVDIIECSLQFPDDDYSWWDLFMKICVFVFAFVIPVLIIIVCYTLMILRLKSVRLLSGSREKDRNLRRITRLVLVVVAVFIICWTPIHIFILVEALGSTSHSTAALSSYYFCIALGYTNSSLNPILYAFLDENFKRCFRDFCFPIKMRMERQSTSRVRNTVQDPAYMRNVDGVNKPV", "conditions": "data from Ananthan et al. (I), cited from earlier work"}, "[6]": {"molecular_target": "T2, δ receptor (mouse vas deferens)", "design": "from tissue; host or cells: mouse vas deferens (male ICR mice)", "conditions": "DPDPE as agonist; data from Ananthan et al. (I); cited from earlier work"}, "mice [7]": {"test_system": "mice", "assay": "55° C. tail-flick antinociception test in mice", "conditions": "for naloxone sensitivity: naloxone 10 mg/kg ip, -10 min, yes = greater than 80% reduction in the antinociceptive effect", "protocol": "Analgesic Testing and Assessment of Tolerance Development. The analgesic activity of selected ligands is tested in mice using the 55° C. tail-flick test as previously described. (See Wells et al., supra.) The test compounds are administered by the intracerbroventricular (icv) route. […] To determine whether the analgesic activity of the tested compounds is mediated through opioid receptors, the blockade of antinociceptive activity by pretreatment with naloxone is carried out. The analgesic activity was considered as naloxone sensitive if greater than 80% reduction in the antinociceptive response is observed.\nAntinociceptive Studies. Male ICR mice (Harlan) are used for all evaluations. Mice are housed in a temperature and humidity controlled vivarium on a 12:12 h light:dark cycle with unlimited access to food and water prior to the formal procedures. […] The dihydrochloride salt of 7h is dissolved in water and injected in a volume of 5 μL. All other compounds are dissolved in 100% DMSO and injected in a volume of 5 μL. Antinociceptive assays are performed at various times after injection.\nPercent antinociception is calculated using the formula: % MPE (maximal possible effect)=100×(test−control)/(cutoff−control) where control is the predrug observation, test is the postdrug observation, and cutoff is the maximal length of stimulus allowed (10 s for 55° C. tail-flick). Antinociceptive A50 values and 95% confidence intervals are determined using linear regression software (FlashCalc). Opioid activity of the test compounds are assessed by pretreating animals with naloxone (10 mg/kg ip, −10 min) followed by an icv injection of an approximate A90 dose of test compound. […] Antinociception is assessed in the 55° C. tail-flick test at 10, 20 and 30 min. A positive response to a fixed dose of naloxone is indicated when greater than 80% reduction in the antinociceptive effect of the agonist is observed."}, "κ receptor": {"molecular_target": "κ receptor (Cavia porcellus, UniProt P41144)", "sequence (P41144 whole entry)": "as above", "conditions": "read-out: antagonist activity apparent Ki (nM ± SD) κ"}, "μ receptor [8]": {"molecular_target": "T5, μ receptor (Cavia porcellus, UniProt A0ACM8Q262)", "T5 sequence (A0ACM8Q262 1-400)": "as the sequence (A0ACM8Q262 1-400) above", "conditions": "guinea pig caudate membranes; Xu et al.; cited from earlier work"}, "mice [9]": {"test_system": "mice", "conditions": "icv or ip administration in mice; Wells et al.; cited from earlier work"}, "mice [10]": {"test_system": "mice", "conditions": "icv or ip administration in mice; Wells et al.; cited from earlier work", "remark": "listed apart in the source"}, "human μ receptors": {"molecular_target": "human μ receptors (Homo sapiens, UniProt P35372)", "sequence (P35372 whole entry)": "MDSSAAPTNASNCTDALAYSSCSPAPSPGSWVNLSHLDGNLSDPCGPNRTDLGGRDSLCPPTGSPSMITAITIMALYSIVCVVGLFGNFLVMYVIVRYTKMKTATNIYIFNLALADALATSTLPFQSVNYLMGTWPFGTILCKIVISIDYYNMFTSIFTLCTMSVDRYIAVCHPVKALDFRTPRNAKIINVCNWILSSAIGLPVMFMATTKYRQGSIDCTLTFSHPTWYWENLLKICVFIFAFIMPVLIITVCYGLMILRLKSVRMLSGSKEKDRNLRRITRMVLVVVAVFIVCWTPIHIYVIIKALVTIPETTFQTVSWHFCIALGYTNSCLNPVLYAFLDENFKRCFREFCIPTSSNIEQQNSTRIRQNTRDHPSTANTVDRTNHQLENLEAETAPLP", "conditions": "cloned cells expressing human μ receptors; Xu et al.; cited from earlier work"}, "mice [11]": {"test_system": "mice", "conditions": "repeated ip injections; Wells et al.; cited from earlier work"}, "δ receptor": {"molecular_target": "δ receptor (Cavia porcellus, UniProt A0A286XTF2)", "sequence (A0A286XTF2 1-366)": "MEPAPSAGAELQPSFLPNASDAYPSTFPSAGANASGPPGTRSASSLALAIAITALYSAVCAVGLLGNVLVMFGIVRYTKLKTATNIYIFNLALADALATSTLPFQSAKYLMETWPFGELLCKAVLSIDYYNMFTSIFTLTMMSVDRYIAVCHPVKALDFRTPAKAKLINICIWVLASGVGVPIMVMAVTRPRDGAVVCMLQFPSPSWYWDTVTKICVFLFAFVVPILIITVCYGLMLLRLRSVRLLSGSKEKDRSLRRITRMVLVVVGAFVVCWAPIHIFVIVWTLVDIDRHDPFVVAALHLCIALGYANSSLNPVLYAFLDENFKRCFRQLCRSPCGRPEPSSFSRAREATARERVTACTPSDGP", "assay": "biochemical"}, "opioid δ receptor [12]": {"molecular_target": "T1, opioid δ receptor", "assay": "Opioid δ receptor binding, [3H]DADLE displacement in rat brain membranes", "conditions": "displacement of [3H]DADLE (1.3-2.0 nM), rat brain membranes, 100 nM DAMGO to block μ sites; read-out: Ki (nM) ± SEM δ"}, "[13]": {"molecular_target": "T2, δ receptor (mouse vas deferens)", "assay": "Mouse vas deferens (MVD) smooth muscle bioassay", "conditions": "inhibition of electrically stimulated contractions; read-out: agonist activity MVD (δ) IC50", "protocol": "(§1) Bioassays in Smooth Muscle Preparations. The functional activity profiles of selected ligands are also determined in the mouse vas deferens (MVD) and guinea pig ileum (GPI) smooth muscle preparations as described previously.\n(§2) The agonist activity is determined by the ability of the compound to inhibit electrically stimulated contractions of the GPI and MVD. The GPI is primarily a μ receptor preparation, even though the ileum does also contain κ receptors. In the MVD, the opioid effects are predominantly mediated through δ receptors, but μ and κ receptors also exist in this tissue.\n(§3) Tissues came from male ICR mice weighing 25-40 g and male Hartley guinea pigs weighing 250-500 g. The tissues are tied to gold chain with suture silk, suspended in 20 mL baths containing 37° C. oxygenated (95% O2, 5% CO2) Krebs bicarbonate solution (magnesium free for the MVD), and allowed to equilibrate for 15 min. The tissues are then stretched to optimal length previously determined to be 1 g tension (0.5 g for MVD) and allowed to equilibrate for 15 min. The tissues are stimulated transmurally between platinum wire electrodes at 0.1 Hz, 0.4 ms pulses (2-ms pulses for MVD), and supramaximal voltage. […] Tissues not producing typical results are not used. Experimental compounds were added to the baths in 14-60 μL volumes. Succeeding doses of agonist are added cumulatively to the bath at 3 min intervals to produce a concentration-response curve. The tissues are then washed extensively with fresh buffer until the original contraction height is reestablished. […] The tissues are then washed with fresh buffer for 30 min, and the agonist dose-response curve was repeated. Rightward shifts in the dose-response curves are calculated by dividing the antagonized dose-response curve IC50 value by the unantagonized IC50 value. IC50 values represent the mean of two to four tissues. IC50 estimates and their associated standard errors are determined by using a computerized nonlinear least-squares method. (MINSQ Least Squares Parameter Estimation, version 3.05; MicroMath Inc., 1999.)"}, "opioid μ receptor [14]": {"molecular_target": "T3, opioid μ receptor"}, "opioid κ receptor [15]": {"molecular_target": "T4, opioid κ receptor"}, "μ receptor [16]": {"molecular_target": "T5, μ receptor", "assay": "biochemical", "conditions": "read-out: agonist activity Emax % μ"}, "mice [17]": {"test_system": "mice", "assay": "Tolerance regimen, repeated icv injections, tail-flick assay", "conditions": "A90 doses icv twice daily for 3 days, tail-flick on day 4; FIG. 4", "excerpt": "Tolerance Regimen. […] Antinociceptive dose-response curves in the tail-flick assay are generated on the morning of the fourth day using the procedures outlined above."}, "[18]": {"molecular_target": "T2, δ receptor (mouse vas deferens)", "assay": "Mouse vas deferens (MVD) smooth muscle bioassay", "design": "from tissue; host or cells: mouse vas deferens (male ICR mice)", "protocol": "as §1, §2, §3"}},
  "note": "Read-outs that look alike come from different tables or passages of the source.",
  "data": [
    {"smiles": "Oc1ccc2c3c1OC1c4ncc(-c5ccccc5)cc4CC4(O)C(C2)N(CC2CC2)CCC314", "note": "(stereo not shown) [2b]", "values": [
      {"measurement": "Ki", "setting": "opioid δ receptor [1]", "result": "0.87 ± 0.07", "unit": "nM"},
      {"measurement": "agonist activity MVD (δ) % max resp", "setting": "[2]", "result": 4.7, "unit": "%"},
      {"measurement": "antagonist activity GPI (μ) Ke", "setting": "[3]; PL-017 as agonist", "result": "43 ± 6.6", "unit": "nM"},
      {"measurement": "agonist activity GPI (μ) % max resp", "setting": "[3]; percentage inhibition of contraction at 1 μM", "result": 0, "unit": "%"},
      {"measurement": "selectivity ratio μ/δ", "setting": "opioid μ receptor [4]", "result": 16},
      {"measurement": "Ki", "setting": "opioid μ receptor [4]; read-out: Ki (nM) ± SEM μ, [3H]DAMGO, rat brain membranes", "result": "13.5 ± 1", "unit": "nM"},
      {"measurement": "selectivity ratio κ/δ", "setting": "opioid κ receptor [5]", "result": 20},
      {"measurement": "Ki", "setting": "opioid κ receptor [5]; read-out: Ki (nM) ± SEM κ, [3H]U69,593, guinea pig brain membranes", "result": "17.6 ± 1.6", "unit": "nM"},
      {"measurement": "antagonist activity MVD (δ) Ke", "setting": "[6]", "result": "3.7 ± 1.0", "unit": "nM"}
    ]},
    {"smiles": "Oc1ccc2c3c1O[C@H]1c4ncc(-c5ccc(Cl)cc5)cc4C[C@@]4(O)[C@@H](C2)N(CC2CC2)CC[C@]314", "note": "[2c]", "values": [
      {"measurement": "% nociception @ 100 nmol", "setting": "mice [7]; icv, 100 nmol, mouse tail-flick", "result": 21, "unit": "% @ 100 nmol^f"},
      {"measurement": "naloxone sensitivity", "setting": "mice [7]", "result": "yes"},
      {"measurement": "Ki", "setting": "κ receptor", "result": "11.2 ± 0.44", "unit": "nM"},
      {"measurement": "μ agonist activity in [35S]GTP-γ-S binding", "setting": "μ receptor [8]", "result": "failed to display μ agonist activity"},
      {"measurement": "agonist activity MVD (δ) % max resp", "setting": "[2]", "result": 21, "unit": "%"},
      {"measurement": "analgesic activity in the tail-flick assay", "setting": "mice [9]", "result": "partial agonist activity"},
      {"measurement": "analgesic activity in the acetic acid writhing assay", "setting": "mice [10]", "result": "full agonist activity"},
      {"measurement": "μ agonist activity in [35S]GTP-γ-S binding", "setting": "human μ receptors", "result": "failed to display μ agonist activity"},
      {"measurement": "tolerance to antinociceptive effects", "setting": "mice [11]", "result": "did not produce tolerance"},
      {"measurement": "Ki", "setting": "δ receptor", "result": 0.000184, "unit": "µM"}
    ]},
    {"smiles": "CN1CC[C@]23c4c5ccc(O)c4O[C@H]2c2ncc(-c4ccc(Cl)cc4)cc2C[C@H]3[C@H]1C5", "note": "[7h, 5′-(4-Chlorophenyl)-6,7-didehydro-4,5α-epoxy-3-hydroxy-17-methylpyrido[2′,3′:6,7]morphinan]", "values": [
      {"measurement": "Ki", "setting": "opioid δ receptor [12]", "result": "4.4 ± 0.2", "unit": "nM"},
      {"measurement": "IC50", "setting": "[13]", "result": "0.565 ± 0.0127", "unit": "µM"},
      {"measurement": "A50", "setting": "mice [7]; icv, mouse tail-flick, at time of peak drug effect", "result": 42.8, "unit": "nmol"},
      {"measurement": "A50 potency value in the tail flick assay", "setting": "mice [7]; mice, full agonist efficacy, FIG. 2", "result": 21.9},
      {"measurement": "naloxone sensitivity", "setting": "mice [7]", "result": "yes"},
      {"measurement": "blockade of antinociceptive activity by μ selective antagonist β-FNA", "setting": "mice [7]; β-FNA 19 nmol, icv, -24 h, FIG. 3", "result": "completely blocked"},
      {"measurement": "selectivity ratio μ/δ", "setting": "opioid μ receptor [14]; ratio of binding Ki values", "result": 34},
      {"measurement": "Ki", "setting": "opioid μ receptor [14]; read-out: Ki (nM) ± SEM μ, displacement of [3H]DAMGO (1.4-3.0 nM), rat brain membranes", "result": "148 ± 9.5", "unit": "nM"},
      {"measurement": "selectivity ratio κ/δ", "setting": "opioid κ receptor [15]; ratio of binding Ki values", "result": 18},
      {"measurement": "Ki", "setting": "opioid κ receptor [15]; read-out: Ki (nM) ± SEM κ, displacement of [3H]U69,593 (1.2-[…]), guinea pig brain membranes", "result": "78 ± 13", "unit": "nM"},
      {"measurement": "Ki", "setting": "κ receptor", "result": "333 ± 25", "unit": "nM"},
      {"measurement": "Ki", "setting": "δ receptor", "result": 0.011, "unit": "µM"},
      {"measurement": "Emax", "setting": "μ receptor [16]", "result": "48 ± 2", "unit": "%"},
      {"measurement": "shift in antinociceptive A50 value after repeated injections", "setting": "mice [17]", "result": "less than 1.1 fold"},
      {"measurement": "Kb", "setting": "[18]", "result": "0.0219 ± 0.00214", "unit": "µM"}
    ]}
  ]
}
